# Data from patent US6992079B2, “Substituted 11-phenyl-dibenzazepine compounds useful for the treatment or prevention of diseases characterized by abnormal cell proliferation” (President Fellows of Harvard College, priority 1997, dated 2006).
# Like-named read-outs stand apart in the source and are kept apart here.
# Tests used:
# [1] = tested on: NIH 3T3 mouse fibroblast cells; test: Mitogenic assay (mitogen-induced cell proliferation); type: cell-based; conditions: Mus musculus, NIH3T3, 10 μM compound
# [2] = tested on: squamous cell carcinoma (KLN-205) cells; test: Tumor growth in murine squamous cell carcinoma model; type: in vivo, mouse; conditions: KLN-205; subcutaneous injection or oral administration of 80 mg/kg/day for 30 days
# [3] = tested on: H209 small lung cell carcinoma; test: Mouse xenograft tumor growth; type: in vivo, SCID mice
# [4] = tested on: ROP-62; type: cell-based
# [5] = tested on: ROP-92; type: cell-based
# [6] = tested on: HCT-116; test: In-Vitro Testing SRB panel: Colon Cancer; type: cell-based; conditions: HCT-116
# [7] = tested on: HT29; test: In-Vitro Testing SRB panel: Colon Cancer; type: cell-based
# [8] = tested on: KM12; test: In-Vitro Testing SRB panel: Colon Cancer; type: cell-based; conditions: KM12
# [9] = tested on: SNB-19; test: In-Vitro Testing SRB panel: CNS Cancer; type: cell-based; conditions: SNB-19
# [10] = tested on: SNB-75; test: In-Vitro Testing SRB panel: CNS Cancer; type: cell-based; conditions: SNB-75
# [11] = tested on: M14; test: In-Vitro Testing SRB panel: Melanoma; type: cell-based; conditions: M14
# [12] = tested on: SK-MEL-5; test: In-Vitro Testing SRB panel: Melanoma; type: cell-based; conditions: SK-MEL-5
# [13] = tested on: UACC-257; test: In-Vitro Testing SRB panel: Melanoma; type: cell-based; conditions: UACC-257
# [14] = tested on: IGROV1; test: In-Vitro Testing SRB panel: Ovarian Cancer; type: cell-based
# [15] = tested on: OVCAR-5; test: In-Vitro Testing SRB panel: Ovarian Cancer; type: cell-based; conditions: OVCAR-5
# [16] = tested on: ACHN; test: In-Vitro Testing SRB panel: Renal Cancer; type: cell-based
# [17] = tested on: RXF 393; test: In-Vitro Testing SRB panel: Renal Cancer; type: cell-based; conditions: RXF 393
# [18] = tested on: MDA-MB-231/ATCC; test: In-Vitro Testing SRB panel: Breast Cancer; type: cell-based; conditions: MDA-MB-231/ATCC
# [19] = tested on: HS 578T; test: In-Vitro Testing SRB panel: Breast Cancer; type: cell-based
# [20] = Homo sapiens, read-out: LC50 (the source's name)
structure (smiles),measurement,setting,value
COc1cccc2c1C(c1ccccc1Cl)c1cc(Cl)ccc1N(C(=O)c1ccc([N+](=O)[O-])cc1)C2 (stereo not shown) [Compound 31],inhibition at 10 µM,[1],99%
same,tumor growth,[2],significantly inhibited tumor growth
same,tumor growth,[3],showed inhibition of tumor growth
same,GI50,[4]; Homo sapiens,> 100 µM
same,CC50,"[4]; Homo sapiens, ROP-62, read-out: LC50 (the source's name)",> 100 µM
same,TGI,[4]; ROP-62,>1.00E−04 Molar
same,Percent Growth,"[4]; ROP-62, log10 conc -4 Molar",50%
same,Percent Growth,"[4]; ROP-62, log10 conc -5 Molar",79%
same,Percent Growth,"[4]; ROP-62, log10 conc -6 Molar",88%
same,Percent Growth,"[4]; ROP-62, log10 conc -7 Molar",105%
same,Percent Growth,"[4]; ROP-62, log10 conc -8 Molar",100%
same,GI50,[5]; Homo sapiens,5.53 µM
same,CC50,"[5]; Homo sapiens, ROP-92, read-out: LC50 (the source's name)",> 100 µM
same,TGI,[5]; ROP-92,>1.00E−04 Molar
same,Percent Growth,"[5]; ROP-92, log10 conc -4 Molar",27%
same,Percent Growth,"[5]; ROP-92, log10 conc -5 Molar",42%
same,Percent Growth,"[5]; ROP-92, log10 conc -6 Molar",74%
same,Percent Growth,"[5]; ROP-92, log10 conc -7 Molar",88%
same,Percent Growth,"[5]; ROP-92, log10 conc -8 Molar",89%
same,TGI,[6],1.00E−04 Molar
same,Percent Growth,[6]; log10 conc -4 Molar,12%
same,Percent Growth,[6]; log10 conc -5 Molar,17%
same,Percent Growth,[6]; log10 conc -6 Molar,32%
same,Percent Growth,[6]; log10 conc -7 Molar,92%
same,Percent Growth,[6]; log10 conc -8 Molar,100%
same,GI50,[6]; Homo sapiens,0.502 µM
same,CC50,[6]; [20],> 100 µM
same,TGI,[7]; HI29,>1.00E−04 Molar
same,Percent Growth,"[7]; HI29, log10 conc -4 Molar",16%
same,Percent Growth,"[7]; HI29, log10 conc -5 Molar",26%
same,Percent Growth,"[7]; HI29, log10 conc -6 Molar",47%
same,Percent Growth,"[7]; HI29, log10 conc -7 Molar",91%
same,Percent Growth,"[7]; HI29, log10 conc -8 Molar",97%
same,GI50,"[7]; Homo sapiens, HT-29",0.866 µM
same,CC50,"[7]; Homo sapiens, HT-29, HI29, read-out: LC50 (the source's name)",> 100 µM
same,GI50,[8]; Homo sapiens,0.519 µM
same,CC50,[8]; [20],> 100 µM
same,TGI,[8],>1.00E−04 Molar
same,Percent Growth,[8]; log10 conc -4 Molar,20%
same,Percent Growth,[8]; log10 conc -5 Molar,32%
same,Percent Growth,[8]; log10 conc -6 Molar,38%
same,Percent Growth,[8]; log10 conc -7 Molar,80%
same,Percent Growth,[8]; log10 conc -8 Molar,99%
same,GI50,[9]; Homo sapiens,2.61 µM
same,CC50,[9]; [20],> 100 µM
same,TGI,[9],5.66E−05 Molar
same,Percent Growth,[9]; log10 conc -4 Molar,−5%
same,Percent Growth,[9]; log10 conc -5 Molar,16%
same,Percent Growth,[9]; log10 conc -6 Molar,74%
same,Percent Growth,[9]; log10 conc -7 Molar,99%
same,Percent Growth,[9]; log10 conc -8 Molar,102%
same,GI50,[10]; Homo sapiens,5.9 µM
same,CC50,[10]; [20],> 100 µM
same,TGI,[10],6.40E−05 Molar
same,Percent Growth,[10]; log10 conc -4 Molar,−11%
same,Percent Growth,[10]; log10 conc -5 Molar,44%
same,Percent Growth,[10]; log10 conc -6 Molar,82%
same,Percent Growth,[10]; log10 conc -7 Molar,100%
same,Percent Growth,[10]; log10 conc -8 Molar,103%
same,GI50,[11]; Homo sapiens,1.22 µM
same,CC50,[11]; [20],> 100 µM
same,TGI,[11],>1.00E−04 Molar
same,Percent Growth,[11]; log10 conc -4 Molar,21%
same,Percent Growth,[11]; log10 conc -5 Molar,30%
same,Percent Growth,[11]; log10 conc -6 Molar,52%
same,Percent Growth,[11]; log10 conc -7 Molar,93%
same,Percent Growth,[11]; log10 conc -8 Molar,92%
same,GI50,[12]; Homo sapiens,0.597 µM
same,CC50,[12]; [20],> 100 µM
same,TGI,[12],>1.00E−04 Molar
same,Percent Growth,[12]; log10 conc -4 Molar,17%
same,Percent Growth,[12]; log10 conc -5 Molar,27%
same,Percent Growth,[12]; log10 conc -6 Molar,41%
same,Percent Growth,[12]; log10 conc -7 Molar,81%
same,Percent Growth,[12]; log10 conc -8 Molar,94%
same,GI50,[13]; Homo sapiens,0.94 µM
same,CC50,[13]; [20],> 100 µM
same,TGI,[13],>1.00E−04 Molar
same,Percent Growth,[13]; log10 conc -4 Molar,7%
same,Percent Growth,[13]; log10 conc -5 Molar,27%
same,Percent Growth,[13]; log10 conc -6 Molar,49%
same,Percent Growth,[13]; log10 conc -7 Molar,91%
same,Percent Growth,[13]; log10 conc -8 Molar,98%
same,GI50,"[14]; Homo sapiens, IGROV-1",2.13 µM
same,CC50,"[14]; Homo sapiens, IGROV-1, IGROV1, read-out: LC50 (the source's name)",> 100 µM
same,TGI,[14]; IGROV1,>1.00E−04 Molar
same,Percent Growth,"[14]; IGROV1, log10 conc -4 Molar",29%
same,Percent Growth,"[14]; IGROV1, log10 conc -5 Molar",35%
same,Percent Growth,"[14]; IGROV1, log10 conc -6 Molar",57%
same,Percent Growth,"[14]; IGROV1, log10 conc -7 Molar",80%
same,Percent Growth,"[14]; IGROV1, log10 conc -8 Molar",94%
same,GI50,[15]; Homo sapiens,91.7 µM
same,CC50,[15]; [20],> 100 µM
same,TGI,[15],>1.00E−04 Molar
same,Percent Growth,[15]; log10 conc -4 Molar,49%
same,Percent Growth,[15]; log10 conc -5 Molar,70%
same,Percent Growth,[15]; log10 conc -6 Molar,82%
same,Percent Growth,[15]; log10 conc -7 Molar,102%
same,Percent Growth,[15]; log10 conc -8 Molar,101%
same,TGI,[16],>1.00E−04 Molar
same,GI50,[16]; Homo sapiens,0.803 µM
same,CC50,[16]; [20],> 100 µM
same,Percent Growth,[16]; log10 conc -4 Molar,8%
same,Percent Growth,[16]; log10 conc -5 Molar,26%
same,Percent Growth,[16]; log10 conc -6 Molar,45%
same,Percent Growth,[16]; log10 conc -7 Molar,95%
same,Percent Growth,[16]; log10 conc -8 Molar,92%
same,GI50,[17]; Homo sapiens,13.1 µM
same,CC50,[17]; [20],> 100 µM
same,TGI,[17],>1.00E−04 Molar
same,Percent Growth,[17]; log10 conc -4 Molar,39%
same,Percent Growth,[17]; log10 conc -5 Molar,52%
same,Percent Growth,[17]; log10 conc -6 Molar,81%
same,Percent Growth,[17]; log10 conc -7 Molar,96%
same,Percent Growth,[17]; log10 conc -8 Molar,96%
same,CC50,[18]; [20],> 100 µM
same,TGI,[18],>1.00E−04 Molar
same,Percent Growth,[18]; log10 conc -4 Molar,56%
same,Percent Growth,[18]; log10 conc -5 Molar,49%
same,Percent Growth,[18]; log10 conc -6 Molar,38%
same,Percent Growth,[18]; log10 conc -7 Molar,50%
same,Percent Growth,[18]; log10 conc -8 Molar,90%
same,TGI,[19]; HS 578T,>1.00E−04 Molar
same,Percent Growth,"[19]; HS 578T, log10 conc -4 Molar",17%
same,Percent Growth,"[19]; HS 578T, log10 conc -5 Molar",31%
same,Percent Growth,"[19]; HS 578T, log10 conc -6 Molar",49%
same,Percent Growth,"[19]; HS 578T, log10 conc -7 Molar",74%
same,Percent Growth,"[19]; HS 578T, log10 conc -8 Molar",90%
same,GI50,"[19]; Homo sapiens, Hs-578T",0.913 µM
same,CC50,"[19]; Homo sapiens, HS 578T, read-out: LC50 (the source's name)",> 100 µM
